Values of other authors as cited in patent US20180344730A1, “MEDICAMENT FOR TREATING MENTAL AND BEHAVIOURAL DISORDERS” (Sumitomo Dainippon Pharma Co., Ltd., priority 2012, published 2018).

What was measured:
histamine H1 receptors = histamine H1 receptors (Homo sapiens, UniProt P35367)
[1] = biological target: T1, noradrenaline α2C receptors (Homo sapiens, UniProt P18825)
T1 sequence (P18825 1-462): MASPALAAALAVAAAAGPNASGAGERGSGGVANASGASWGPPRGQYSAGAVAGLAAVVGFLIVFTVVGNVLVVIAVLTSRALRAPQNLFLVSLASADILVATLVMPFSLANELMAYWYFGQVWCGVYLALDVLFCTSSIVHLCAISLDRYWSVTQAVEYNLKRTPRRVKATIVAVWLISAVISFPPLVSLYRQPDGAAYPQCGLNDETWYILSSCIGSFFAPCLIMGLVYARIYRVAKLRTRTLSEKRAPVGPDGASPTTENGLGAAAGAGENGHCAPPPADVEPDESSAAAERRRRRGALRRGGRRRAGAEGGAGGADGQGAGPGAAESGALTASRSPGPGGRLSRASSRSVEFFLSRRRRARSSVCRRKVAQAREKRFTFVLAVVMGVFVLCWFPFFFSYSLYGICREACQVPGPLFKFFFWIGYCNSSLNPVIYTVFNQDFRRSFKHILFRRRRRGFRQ

[2] = biological target: T2, serotonin 5-HT1A receptors (Homo sapiens, UniProt P08908)
T2 sequence (P08908 1-422): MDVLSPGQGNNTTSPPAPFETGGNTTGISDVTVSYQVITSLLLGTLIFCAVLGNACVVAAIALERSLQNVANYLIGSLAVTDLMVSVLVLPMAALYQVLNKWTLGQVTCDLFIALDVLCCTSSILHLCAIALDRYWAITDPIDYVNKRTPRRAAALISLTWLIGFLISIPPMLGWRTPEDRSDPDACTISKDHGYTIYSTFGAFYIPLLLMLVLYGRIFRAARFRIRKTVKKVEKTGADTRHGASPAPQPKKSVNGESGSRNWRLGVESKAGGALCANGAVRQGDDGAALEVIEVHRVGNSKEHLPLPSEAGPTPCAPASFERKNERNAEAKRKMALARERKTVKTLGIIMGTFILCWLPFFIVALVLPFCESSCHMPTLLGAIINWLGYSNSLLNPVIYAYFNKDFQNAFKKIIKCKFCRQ

[3] = biological target: serotonin 5-HT7 receptors (Homo sapiens, UniProt P34969)
muscarinic M1 receptors = biological target: T3, muscarinic M1 receptors (Homo sapiens, UniProt P11229)
T3 sequence (P11229 1-460): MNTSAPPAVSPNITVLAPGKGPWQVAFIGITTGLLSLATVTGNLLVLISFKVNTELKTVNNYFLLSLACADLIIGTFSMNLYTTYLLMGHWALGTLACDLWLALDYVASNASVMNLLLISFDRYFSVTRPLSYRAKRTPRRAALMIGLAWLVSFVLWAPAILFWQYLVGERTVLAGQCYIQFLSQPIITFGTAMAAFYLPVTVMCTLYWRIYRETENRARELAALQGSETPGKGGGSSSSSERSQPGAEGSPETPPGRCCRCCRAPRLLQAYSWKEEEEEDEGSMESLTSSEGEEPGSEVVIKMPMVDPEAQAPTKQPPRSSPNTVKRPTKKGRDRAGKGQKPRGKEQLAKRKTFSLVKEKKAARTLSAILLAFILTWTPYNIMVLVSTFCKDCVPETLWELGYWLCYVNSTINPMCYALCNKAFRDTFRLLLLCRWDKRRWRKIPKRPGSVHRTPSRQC

dopamine D2 receptors = dopamine D2 receptors (Homo sapiens, UniProt P14416)
[4] = biological target: serotonin 5-HT2A receptors (Homo sapiens, UniProt P28223)
Chain of serotonin 5-HT2A receptors (P28223 whole entry): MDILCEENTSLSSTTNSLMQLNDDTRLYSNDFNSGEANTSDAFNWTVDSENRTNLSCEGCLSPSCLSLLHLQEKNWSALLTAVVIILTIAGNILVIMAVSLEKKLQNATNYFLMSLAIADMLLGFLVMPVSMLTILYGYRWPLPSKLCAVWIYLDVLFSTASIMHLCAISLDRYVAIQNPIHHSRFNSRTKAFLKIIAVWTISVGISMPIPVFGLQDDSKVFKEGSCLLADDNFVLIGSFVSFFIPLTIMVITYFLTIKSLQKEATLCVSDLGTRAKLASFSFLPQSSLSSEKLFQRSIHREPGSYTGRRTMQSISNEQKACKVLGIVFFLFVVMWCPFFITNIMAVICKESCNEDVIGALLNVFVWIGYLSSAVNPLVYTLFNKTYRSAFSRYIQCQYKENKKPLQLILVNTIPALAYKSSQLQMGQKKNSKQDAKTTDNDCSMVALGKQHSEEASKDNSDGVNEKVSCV

Chain of serotonin 5-HT7 receptors (P34969 whole entry): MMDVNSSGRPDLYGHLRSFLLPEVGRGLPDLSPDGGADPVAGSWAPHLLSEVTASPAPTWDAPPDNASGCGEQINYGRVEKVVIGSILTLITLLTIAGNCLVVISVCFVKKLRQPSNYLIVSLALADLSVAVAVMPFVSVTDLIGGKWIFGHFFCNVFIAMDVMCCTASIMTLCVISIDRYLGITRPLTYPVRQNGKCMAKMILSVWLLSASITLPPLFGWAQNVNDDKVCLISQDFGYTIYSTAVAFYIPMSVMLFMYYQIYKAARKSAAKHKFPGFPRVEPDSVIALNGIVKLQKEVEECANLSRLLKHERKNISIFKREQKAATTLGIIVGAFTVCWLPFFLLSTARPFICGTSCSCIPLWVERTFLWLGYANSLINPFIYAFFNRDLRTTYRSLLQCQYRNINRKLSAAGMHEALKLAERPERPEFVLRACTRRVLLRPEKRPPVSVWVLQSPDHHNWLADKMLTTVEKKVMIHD
Chain of histamine H1 receptors (P35367 whole entry): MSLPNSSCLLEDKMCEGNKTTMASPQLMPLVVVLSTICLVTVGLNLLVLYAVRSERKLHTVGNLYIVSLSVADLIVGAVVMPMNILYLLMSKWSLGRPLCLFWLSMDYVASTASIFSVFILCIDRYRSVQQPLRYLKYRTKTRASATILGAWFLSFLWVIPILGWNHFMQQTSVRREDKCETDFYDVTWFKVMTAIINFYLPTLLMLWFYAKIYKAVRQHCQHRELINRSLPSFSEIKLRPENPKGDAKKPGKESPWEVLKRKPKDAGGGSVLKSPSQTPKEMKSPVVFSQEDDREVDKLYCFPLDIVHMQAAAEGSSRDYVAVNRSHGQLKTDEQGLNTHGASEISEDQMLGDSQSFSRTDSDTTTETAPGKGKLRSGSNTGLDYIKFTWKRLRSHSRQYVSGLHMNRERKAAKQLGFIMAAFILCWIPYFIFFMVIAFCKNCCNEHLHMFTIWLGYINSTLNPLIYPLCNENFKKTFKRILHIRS
Chain of dopamine D2 receptors (P14416 whole entry): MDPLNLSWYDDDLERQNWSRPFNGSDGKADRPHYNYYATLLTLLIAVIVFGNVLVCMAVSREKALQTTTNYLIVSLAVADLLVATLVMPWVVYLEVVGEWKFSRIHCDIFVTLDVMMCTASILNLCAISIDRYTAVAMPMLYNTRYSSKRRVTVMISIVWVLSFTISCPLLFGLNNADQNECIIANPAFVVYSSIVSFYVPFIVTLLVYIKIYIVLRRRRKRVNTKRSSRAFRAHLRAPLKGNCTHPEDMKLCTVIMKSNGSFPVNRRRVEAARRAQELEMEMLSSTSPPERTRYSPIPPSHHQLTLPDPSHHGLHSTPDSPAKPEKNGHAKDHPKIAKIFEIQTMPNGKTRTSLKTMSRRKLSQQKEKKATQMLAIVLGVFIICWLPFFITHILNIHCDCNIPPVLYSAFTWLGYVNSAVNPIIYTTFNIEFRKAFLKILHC

For `O=C1[C@@H]2[C@H]3CC[C@H](C3)[C@@H]2C(=O)N1C[C@@H]1CCCC[C@H]1CN1CCN(c2nsc3ccccc23)CC1` [Lurasidone, (3aR, 4S, 7R, 7aS)-2-{(1R, 2R)-2-[4-(1,2-benzisothiazol-3-yl)piperazin-1-ylmethyl]cyclo-hexylmethyl}hexahydro-4,7-methano-2H-isoindole-1,3-dione], the “affinity for histamine H1 receptors” value (histamine H1 receptors) is listed as “minimal to no affinity”, the “affinity for noradrenaline α2C receptors” value [1] is listed as “high affinity” and the “affinity for serotonin 5-HT1A receptors” value [2] is listed as “high affinity”. For the same molecule, the “affinity for serotonin 5-HT7 receptors” value [3] was “high affinity”, the “affinity for muscarinic M1 receptors” value (muscarinic M1 receptors) was “minimal to no affinity” and the “affinity for dopamine D2 receptors” value (dopamine D2 receptors) was “high affinity”. The “affinity for serotonin 5-HT2A receptors” value [4] was “high affinity”.
